# Data reported in patent US11419883B2, “Inhibiting senescent processes in beta cells for the prevention of type 1 diabetes” (The Regents of the University of California, priority 2017, dated 2022).
# What was measured:
# immune compartment = test: Flow cytometry of immune cell types in spleen, pancreatic lymph nodes and islets of treated mice; type: in vivo, NOD mice; settings: pancreatic lymph nodes, islets; for proportions or balance of effector T cells, B cells and regulatory T cells: relative to vehicle control mice
# Protocol: (§1) Example 5. Targeted depletion of SASP beta cells prevents diabetes in NOD mice The impact of senolytic treatments on immune cells was assessed. In islets from NOD mice treated with ABT-737, there was a 2-fold increase in apoptotic cells, as measured by flow cytometry for Annexin V and propidium iodide, in the endocrine compartment compared to vehicle control mice (FIG. 1). […] Flow cytometry was then used to examine the distributions and proportions of main lymphoid cell types involved in T1D in the spleen, pancreatic lymph nodes, and islets from vehicle control and ABT-737- and ABT-199-treated mice.
# [1] = tested on: CD45-depleted islet cells; test: SASP factors in conditioned media from CD45-depleted islet cells of treated NOD mice; type: in vivo; settings: compared to vehicle control mice
# Protocol: The secretome of islet cells from the 14-16 week NOD mice was analyzed. Islets depleted of CD45^+ cells were cultured in serum-free media and the resulting culture supernatant, hereafter referred to as conditioned media (CM) was analyzed using a bead-based multi-analyte luminex assay including a variety of key SASP factors and immune cell-specific non-SASP factors (IL-2, Granzyme B). Consistent with the immunohistochemistry analysis, the secretion of SASP factors (IL-6, Serpine1, G-CSF, Ccl2, Mmp9, Mmp12 and Igfpb3) was dramatically higher in the CD45-depleted islet cell populations from 14-week NOD mice as compared with 8-week mice. To determine the time-course of the stress response and SASP in beta cells, younger cohorts of 10 and 12-week old euglycemic NOD mice were analyzed by immunostaining for Cdknla and IL-6.
# (§2) Similarly, THP1 chemotaxis activity was reduced in the CM upon ABT-737 treatment of islets relative to vehicle-treated islets ex vivo.
# NOD mice = test: Diabetes incidence in NOD mice after senolytic treatment; type: in vivo
# Protocol: FIG. 2 depicts the incidence of diabetes in a cohort of NOD mice treated with ABT-199 (n=5) or vehicle (n=5).
# For studies using ABT-737, 10 week old euglycemic NOD/ShiltJ mice were given oral gavage of 100 mg/kg ABT-737 or vehicle (30% propylene glycol, 5% Tween-80 and 65% D5W) for 3 consecutive days followed by a break for 4 days and then again treated for 3 days (a total of 6 doses), and then untreated for 2 weeks followed by three consecutive days of ABT-737 or vehicle treatment and then allowed to age without further treatment until 28 weeks of age.
# To determine whether clearance of SASP beta cells prevented diabetes, 10 week euglycemic NOD mice were administered ABT-737 by oral gavage for two weeks, followed by another dose at 16 weeks and allowed to age. Strikingly, while 60% of vehicle control mice were diabetic at this time, only 40% of ABT-737-treated mice became diabetic. We performed a similar study with ABT-199, administering the drug by oral gavage for 2 weeks from 11-13 weeks of age and allowing the mice to age to 30 weeks. Remarkably, while 100% of the controls became diabetic by 28 weeks, only 10% of the ABT-199-treated mice were diabetic (FIG. 2).
# NOD islets [2] = test: NOD islets treated with BH3 mimetics, senescence marker mRNA; type: cell-based, mouse; settings: NOD islets treated with BH3 mimetic
# From the text: Example 4. BH3 mimetics preferentially eliminate SASP beta cells in NOD mice. To determine the role of SASP cells in the development of T1D, we next explored whether pro-survival checkpoints could be exploited to promote selective deletion of senescent beta cells. […] The Bcl-2 family contains a hydrophobic groove called the BH3 domain and ‘BH3 mimetics’ are pharmacological compounds that mimic the binding of the BH3-only initiator proteins to the pro-survival members. The BH3 mimetics can trigger apoptosis with some specificity in cells that have high levels of Bcl-2 or the related members. A number of small molecule inhibitors that target Bcl-2, Bcl-xL, Bcl-w or Mcl-1 proteins have been developed and some of them have been used to preferentially trigger apoptosis in senescent cells, both in vitro and in vivo. To determine which Bcl-2 pro-survival members were relevant to SASP islet cells, we treated NOD islets with BH3 mimetics that had different specificities. ABT-737 targets Bcl-2 and family members Bcl-xL and Bcl-w, ABT-199 selectively targets Bcl-2, and Maritoclax targets only Mcl-1. […]
# SASP beta cells = test: ABT-737 oral gavage in NOD mice, immunostaining of senescence and SASP markers in beta cells; type: in vivo; settings: oral gavage for 1 week
# Protocol: To determine whether ABT-737 targeted SASP beta cells for apoptosis in vivo, NOD mice were administered ABT-737 via oral gavage for 1 week followed by analysis of senescence and SASP markers by immunostaining.
# human THP-1 cell line = test: THP1 monocyte chemotaxis (transwell) with conditioned media of treated islets; type: cell-based; settings: treatment of islets ex vivo, relative to vehicle-treated islets
# Protocol: The ability of CM from NOD islet cells and human islets to induce monocyte chemotaxis using the transwell assay was tested using the human THP-1 cell line. NCM was capable of stimulating chemotaxis 3-fold over the SFM control, similarly to the positive control, serum-free media conditioned with recombinant mouse CCL2. In addition, CM from human islets expressing SASP induced THP1 chemotaxis ˜5-fold over the SFM control.
# as §2
# NOD islets [3] = test: Apoptosis in islets of treated NOD mice (Annexin V/propidium iodide flow cytometry, TUNEL); type: in vivo
# Protocol: FIG. 1 depicts the abundance of apoptotic cells (Annexin V^+) in the CD45-(endocrine enriched) fractions of NOD islets treated with ABT-737 for two weeks, compared to control vehicle-treated mice (n=2 mice per group), error bars are s.d. *p<0.05, two-tailed T-test.
# as §1
# [4] = tested on: NOD MEFs and 8-week NOD islet cells; test: Paracrine senescence activity of conditioned media from islet cells of treated mice; type: cell-based, mouse; settings: CM from CD45-depleted islet cells of treated mice, on NOD MEFs and 8-week NOD islet cells
# Protocol: Example 3. Non-cell autonomous activities of islet SASP. To address whether the SASP of beta cells had non-cell autonomous effects resembling SASP, the ability of secreted factors from CD45-depleted islet cells of 14 wk NOD mice to induce senescence in NOD mouse embryonic fibroblasts (MEFs) and in 8 week NOD islets (when senescence is not observed) was assessed. When early passage NOD MEFs were cultured in the presence of CM from 14 wk CD45-depleted NOD islet cells (NCM) they induced Cdkn1a and Cdkn2a expression and increased SA-βgal activity, similarly to the senescent MEF CM control (SCM). The NCM was also capable of increasing the proportion of SA-βgal^+ cells in the cultured islets from 8 week old NOD mice.
# as §2
# [5] = tested on: normal human donor islets; test: Bleomycin-induced senescence and SASP in normal human donor islets; type: cell-based
# Protocol: Next, normal human donor islets were treated with the chemotherapeutic agent bleomycin to induce double-strand DNA breaks and monitored the development of stress-induced senescence and SASP by qRT-PCR and secretion assays after 5 days, coinciding with the typical onset of SASP.
proportions of macrophages or dendritic cells (immune compartment),"proportions or balance of effector T cells, B cells and regulatory T cells (immune compartment)",Compound,levels of SASP factors in CM from CD45-depleted islet cells [1],"treated mice diabetic (NOD mice; dosed 2 weeks from 11-13 weeks of age, by 28 weeks, 100% of controls diabetic)",Cdkn1a mRNA from treated islets (NOD islets [2]),Cdkn2a mRNA from treated islets (NOD islets [2]),Cdkn2a expression in beta cells (immunostaining) (SASP beta cells),reduction in Cdkn2a+ beta cells (SASP beta cells; quantification),SASP marker Mmp2+ beta cells (SASP beta cells; relative to controls),THP1 chemotaxis activity of CM (human THP-1 cell line),"increase in apoptotic cells (Annexin V+) in the endocrine compartment (NOD islets [3]; CD45- fraction of NOD islets, treated two weeks, compared to vehicle control mice)",TUNEL staining of apoptotic islet cells (NOD islets [3]; pancreata from treated mice),apoptosis in the immune compartment (NOD islets [3]; relative to vehicle controls),paracrine senescence activity of CM [4],"treated mice that became diabetic (NOD mice; 10 week NOD mice, oral gavage two weeks plus another dose at 16 weeks, 60% of vehicle controls diabetic)",expression of CDKN1A and CDKN2A (qRT-PCR) ([5]; after 5 days),"SASP factors IL-6, IL-8, IL-1β and TNFα in CM (Luminex) ([5]; compared with control islet CM)"
no changes,no significant changes,CC1(C)CCC(CN2CCN(c3ccc(C(=O)NS(=O)(=O)c4ccc(NCC5CCOCC5)c([N+](=O)[O-])c4)c(Oc4cnc5[nH]ccc5c4)c3)CC2)=C(c2ccc(Cl)cc2)C1 [ABT-199],lower levels of most of the SASP factors,10%,significant reduction,significant reduction,,,,,,,,,,,
no changes,no significant changes,CN(C)CC[C@H](CSc1ccccc1)Nc1ccc(S(=O)(=O)NC(=O)c2ccc(N3CCN(Cc4ccccc4-c4ccc(Cl)cc4)CC3)cc2)cc1[N+](=O)[O-] [ABT-737],lower levels of most of the SASP factors,,significant reduction,significant reduction,marked reduction,over 40%,only rarely detected,reduced,2 fold,showed TUNEL^+ cells within the islet,no significant differences,diminished,40%,,
,,O=C(c1ccccc1O)c1[nH]c(Cl)c(Cl)c1-n1c(C(=O)c2ccccc2O)cc(Cl)c1Cl [Maritoclax],,,did not have effects,did not have effects,,,,,,,,,,,
,,bleomycin,,,,,,,,,,,,,,induced expression,increased levels
